{"source": "patent US20100009852A1", "about": "“Plant growth regulator” (priority 2008, published 2010)", "key": {"[1]": {"tested_on": "maize varieties (Cecilia and Abraxas)", "experiment": "Shoot growth regulation: glasshouse pot trial, plant height of 2 maize varieties", "assay_type": "in vivo", "conditions": "for Mean plant height per pot, Mean of 8 replicates / Mean plant height per pot, single replicate: 25 days after sowing", "method": "Three cyprosulfamide treatment methods (1 to 3) were used in a trial designed to investigate effects on shoot development. Treatment method 1 was a seed treatment. For this, fifty seeds each of two maize varieties ([…] and Abraxas) were weighed and placed into each of 50 ml glass screw cap bottles. To one of these bottles sufficient wettable powder formulation of cyprosulfamide (20% formulation) was added to provide 1 g of cyprosulfamide per 1000 g of seed. To the second bottle the same amount of a blank formulation (same components but lacking cyprosulfamide) was added. To each bottle 10 ml of deionised water was added the caps fitted. The bottles were then placed on a shaker for 20 minutes so that the seeds were evenly coated with the formulation. For methods 2 and 3, 240 peat pots (7 cm diameter) were filled to within 3 cm of the top with steam sterilised sandy-loam soil (20% sand, 57% silt, 23% clay, pH 6.8 and 1.4% organic matter). In addition, 120 Petri dishes (10 cm diameter) were filled (1 cm depth) with the same soil. The 20% wettable powder formulation of cyprosulfamide was dispersed in de-ionised water to produce the required concentration (ppm). 120 pots (Treatment 2) and the all 120 Petri dishes (Treatment 3) were placed on “feed-belt” of a track-sprayer. The spray solution of cyprosulfamide was placed into the spray vessel and applied to the target pots/dishes at a spray volume of 300 l/ha via a flat fan nozzle. This provided a dose rate equivalent to 1000 g of cyprosulfamide per hectare soil surface. For treatment method 1, five treated maize seed were sown onto 8 replicate untreated pots and covered with untreated soil. For treatment method 2, five untreated seeds were sown onto 8 replicate treated pots and covered with untreated soil. For treatment method 3, five untreated seeds were sown onto 8 replicate untreated pots and covered using the treated soil from the Petri dishes. Control (Treatment 4) had also untreated seeds on untreated soil. The placement of cyprosulfamide as a result of these treatment methods is shown in FIG. 1 All the pots were watered and placed in a glasshouse set to 24° C.±2° C. day and 17° C.±2° C. night. The relative humidity was normally above 60%. High-pressure mercury lamps (400 W) were used to augment daylight during cloudy conditions. Pots were watered as required. 25 days after sowing the height of each plant was measured from soil surface to tip of tallest leaf which was held up against a ruler."}, "[2]": {"tested_on": "maize (Zea mays—variety Oldham)", "experiment": "Root growth promotion: maize germination in a soil free test system", "assay_type": "in vivo", "conditions": "for Fresh weight of harvested roots, Mean of 4 replicates / Fresh weight of harvested roots, single replicate: 13 days after sowing, Blank WP mean 317; for Fresh weight of harvested roots, single replicate: roots of 10 seeds per container", "method": "8 cm round filter papers were placed in 9.5 cm square clear plastic tissue culture containers (ICN Biomedicals, Inc). The paper in each of 4 containers were wetted with 2 ml of tap water containing 2500, 1250 or 625 ppm of cyprosulfamide provided as a 20% wettable powder formulation (WP). 4 further containers were wetted with tap water containing blank WP formulation (i.e. all components except cyprosulfamide). Into each Petri dish 10 seeds of maize (Zea mays—variety Oldham) were evenly spread and the lids put in place. The Petri dishes were placed in glasshouse set to 24° C.±2° C. day and 17° C.±2° C. night. High-pressure mercury lamps (400 W) were used to augment daylight during cloudy conditions. As required, small volumes of water were added to the Petri dishes as necessary to keep the filter paper moist. After 13 days the roots from all seeds per container were harvested by cutting as close to the base as possible. The fresh weight of roots was measured immediately."}, "[3]": {"conditions": "variety Abraxas, treatment 1 = seed treatment, 1 g per 1000 g seed, untreated mean 36.0"}, "[4]": {"conditions": "variety Abraxas, treatment 2 = soil below seed, 1000 g per hectare, untreated mean 36.0"}, "[5]": {"conditions": "variety Abraxas, treatment 3 = soil above seed, 1000 g per hectare, untreated mean 36.0"}, "[6]": {"conditions": "variety Cecilia, treatment 1 = seed treatment, 1 g per 1000 g seed, untreated mean 55.3"}, "[7]": {"conditions": "variety Cecilia, treatment 2 = soil below seed, 1000 g per hectare, untreated mean 55.3"}, "[8]": {"conditions": "variety Cecilia, treatment 3 = soil above seed, 1000 g per hectare, untreated mean 55.3"}}, "note": "Where “and” joins values, the source holds several entries; their conditions need not be identical. Equal values may be shown once."}
{"smiles": "COc1ccccc1C(=O)NS(=O)(=O)c1ccc(C(=O)NC2CC2)cc1", "note": "[cyprosulfamide]", "values": [{"measurement": "effect on plant height (statistical analysis)", "setting": "[1]; all treatments (1 to 3) versus untreated, in Cecilia and Abraxas", "result": "significantly reduced plant height"}, {"measurement": "Mean plant height per pot, Mean of 8 replicates", "setting": "[1]; [3]", "result": 26.3, "unit": "cm"}, {"measurement": "Mean plant height per pot, single replicate", "setting": "[1]; [3]", "result": "28.2 cm and 20.8 cm and 31.6 cm and 22.6 cm and 25.2 cm and 22.2 cm and 28.8 cm and 30.6 cm"}, {"measurement": "Mean plant height per pot, Mean of 8 replicates", "setting": "[1]; [4]", "result": 33.4, "unit": "cm"}, {"measurement": "Mean plant height per pot, single replicate", "setting": "[1]; [4]", "result": "34.2 cm and 34.5 cm and 34.4 cm and 33.4 cm and 32.2 cm and 33.6 cm and 30.5 cm and 34.6 cm"}, {"measurement": "Mean plant height per pot, Mean of 8 replicates", "setting": "[1]; [5]", "result": 30.4, "unit": "cm"}, {"measurement": "Mean plant height per pot, single replicate", "setting": "[1]; [5]", "result": "25.2 cm and 26.6 cm and 29.6 cm and 32.2 cm (2×) and 31.4 cm and 32.8 cm and 33.0 cm"}, {"measurement": "Mean plant height per pot, Mean of 8 replicates", "setting": "[1]; [6]", "result": 41.2, "unit": "cm"}, {"measurement": "Mean plant height per pot, single replicate", "setting": "[1]; [6]", "result": "34.3 cm and 40.7 cm and 50.0 cm and 38.3 cm and 39.3 cm and 44.0 cm and 41.0 cm and 41.7 cm"}, {"measurement": "Mean plant height per pot, Mean of 8 replicates", "setting": "[1]; [7]", "result": 44.4, "unit": "cm"}, {"measurement": "Mean plant height per pot, single replicate", "setting": "[1]; [7]", "result": "46.0 cm (2×) and 50.0 cm and 48.2 cm and 42.8 cm and 41.7 cm and 40.6 cm and 40.3 cm"}, {"measurement": "Mean plant height per pot, Mean of 8 replicates", "setting": "[1]; [8]", "result": 47.8, "unit": "cm"}, {"measurement": "Mean plant height per pot, single replicate", "setting": "[1]; [8]", "result": "43.0 cm and 54.0 cm and 47.6 cm and 47.0 cm and 55.5 cm and 58.0 cm and 36.8 cm and 40.8 cm"}, {"measurement": "Fresh weight of harvested roots, Mean of 4 replicates", "setting": "[2]; WP + 625 ppm a.i.", "result": 620, "unit": "mg"}, {"measurement": "Fresh weight of harvested roots, single replicate", "setting": "[2]; WP + 625 ppm a.i.", "result": "587 mg and 579 mg and 547 mg and 767 mg"}, {"measurement": "Fresh weight of harvested roots, Mean of 4 replicates", "setting": "[2]; WP + 1250 ppm a.i.", "result": 838, "unit": "mg"}, {"measurement": "Fresh weight of harvested roots, single replicate", "setting": "[2]; WP + 1250 ppm a.i.", "result": "700 mg and 717 mg and 846 mg and 1087 mg"}, {"measurement": "Fresh weight of harvested roots, Mean of 4 replicates", "setting": "[2]; WP + 2500 ppm a.i.", "result": 778, "unit": "mg"}, {"measurement": "Fresh weight of harvested roots, single replicate", "setting": "[2]; WP + 2500 ppm a.i.", "result": "918 mg and 1211 mg and 634 mg and 350 mg"}, {"measurement": "root development of germinating maize seed", "setting": "[2]; in the presence of cyprosulfamide (625-2500 ppm) versus blank WP", "result": "significantly enhanced"}]}
